Test results: patent US11267826B2, “Penicillin-binding protein inhibitors” (priority 2017, dated 2022)
Like-named read-outs stand apart in the source and are kept apart here.

Legend:
[1] = tested on: hyper-permeable E. coli 901C; assay: Broth microdilution MIC assay, hyper-permeable E. coli; assay type: cell-based; settings: Escherichia coli, read-out: E. coli 901C MIC
Protocol: (§1) To determine the ability of test compounds to potentiate the inhibition of the growth of bacterial strains, classic cell based broth microdilution MIC assays were employed. MIC assays are performed according to CLSI methods except where otherwise noted (CLSI, 2011 and CLSI, 2009). The reference strain S. aureus ATCC 29213 and the hyper-permeable E. coli 901C were used to determine the ability of the PBP compounds to inhibit bacterial growth. Briefly, cryo-preserved bacterial cultures of clinical strains are streaked for isolation on appropriate agar medium, in this case Mueller Hinton II agar. Following incubation to allow formation of colonies these plates are sealed with parafilm and stored refrigerated for up to two weeks. For preparation of assay inocula and to ensure low variability, at least 5 colonies are picked from the agar plates with an inoculating loop and aseptically transferred to a culture tube containing 3 mL of Mueller-Hinton Broth (supplemented with divalent cations to required levels based on Manufacturers' certification). The broth culture is grown for 3-5 hours at 37° C. with shaking at 200 rpm. Meanwhile, 2-fold serial dilutions of test compounds are conducted in a 96 well plate with a final volume of 75 μL per well at 2-fold the final desired concentration. After the dilution plates are set up the growing cultures are then diluted in a cuvette containing MH II broth and the optical density is measured at 600 nm. Inocula are diluted such that 75 μL of this culture in Mueller-Hinton Broth results in a starting bacterial concentration of 5×10^5 CFU/mL when added to the dilution plates. The plates are incubated 16-20 hours at 37° C. The MIC is read visually as the lowest concentration well with no bacterial growth.

S. aureus ATCC 29213 = assay: Broth microdilution MIC assay, S. aureus; assay type: cell-based; settings: Staphylococcus aureus
Protocol: as §1

[2] = ATCC29213, broth microdilution, 16-20 hours at 37° C., read-out: S. aureus 29213 MIC

Row | SMILES | MIC [1] | MIC (S. aureus ATCC 29213; [2]) | MIC (S. aureus ATCC 29213; ATCC29213, read-out: S. aureus 29213 MIC)
1 | CNc1nc(/C(=N/O)C(=O)N[C@H]2Cc3cccc(C(=O)O)c3OB2O)cs1 [Example 106, (R,Z)-2-hydroxy-3-(2-(hydroxyimino)-2-(2-(methylamino)thiazol-4-yl)acetamido)-3,4-dihydro-2H-benzo[e][1,2]oxaborinine-8-carboxylic Acid] | > 128 µg/mL | > 128 µg/mL | 
2 | CC(O/N=C(\C(=O)N[C@H]1Cc2cccc(C(=O)O)c2OB1O)c1csc(N)n1)C(=O)NCCNCCN (stereo partly drawn) [Example 104, (3R)-3-((Z)-12-amino-2-(2-aminothiazol-4-yl)-5-methyl-6-oxo-4-oxa-3,7,10-triazadodec-2-enamido)-2-hydroxy-3,4-dihydro-2H-benzo[e][1,2]oxaborinine-8-carboxylic Acid] | < 64 µg/mL |  | > 128 µg/mL
3 | Nc1cc(/C(=N/O)C(=O)N[C@H]2Cc3cccc(C(=O)O)c3OB2O)ccn1 [Example 14, (R,Z)-3-(2-(2-aminopyridin-4-yl)-2-(hydroxyimino)acetamido)-2-hydroxy-3,4-dihydro-2H-benzo[e][1,2]oxaborinine-8-carboxylic Acid] | > 128 µg/mL | < 64 µg/mL | 
4 | Nc1cccc(/C(=N/O)C(=O)N[C@H]2Cc3cccc(C(=O)O)c3OB2O)n1 [Example 16, (R,Z)-3-(2-(6-aminopyridin-2-yl)-2-(hydroxyimino)acetamido)-2-hydroxy-3,4-dihydro-2H-benzo[e][1,2]oxaborinine-8-carboxylic Acid] | 64 to 128 µg/mL | < 64 µg/mL | 
5 | Nc1cc(/C(=N\O)C(=O)N[C@H]2Cc3cccc(C(=O)O)c3OB2O)ccn1 [Example 15, (R,E)-3-(2-(2-aminopyridin-4-yl)-2-(hydroxyimino)acetamido)-2-hydroxy-3,4-dihydro-2H-benzo[e][1,2]oxaborinine-8-carboxylic Acid] | > 128 µg/mL | 64 to 128 µg/mL | 
6 | O=C(N[C@H]1Cc2cccc(C(=O)O)c2OB1O)/C(Cn1cncn1)=N\O [Example 126, (R,Z)-2-hydroxy-3-(2-(hydroxyimino)-3-(1H-1,2,4-triazol-1-yl)propanamido)-3,4-dihydro-2H-benzo[e][1,2]oxaborinine-8-carboxylic Acid] | > 128 µg/mL | > 128 µg/mL | 
7 | O=C(N[C@H]1Cc2cccc(C(=O)O)c2OB1O)/C(=N\O)c1csc(NCCO)n1 [Example 102, (R,Z)-2-hydroxy-3-(2-(2-((2-hydroxyethyl)amino)thiazol-4-yl)-2-(hydroxyimino)acetamido)-3,4-dihydro-2H-benzo[e][1,2]oxaborinine-8-carboxylic Acid] | > 128 µg/mL | > 128 µg/mL | 
8 | Nc1nc(/C(=N/O)C(=O)N[C@H]2Cc3ccc(F)c(C(=O)O)c3OB2O)cs1 [Example 39, (R,Z)-3-(2-(2-aminothiazol-4-yl)-2-(hydroxyimino)acetamido)-7-fluoro-2-hydroxy-3,4-dihydro-2H-benzo[e][1,2]oxaborinine-8-carboxylic Acid] | < 64 µg/mL | < 64 µg/mL | 
9 | Nc1nc(/C(=N/O)C(=O)N[C@H]2Cc3c(F)c(F)cc(C(=O)O)c3OB2O)cs1 [Example 40, (R,Z)-3-(2-(2-aminothiazol-4-yl)-2-(hydroxyimino)acetamido)-5,6-difluoro-2-hydroxy-3,4-dihydro-2H-benzo[e][1,2]oxaborinine-8-carboxylic Acid] | > 128 µg/mL | < 64 µg/mL | 
10 | NC(=O)CNc1nc(/C(=N/O)C(=O)N[C@H]2Cc3cccc(C(=O)O)c3OB2O)cs1 [Example 109, (R,Z)-3-(2-(2-((2-amino-2-oxoethyl)amino)thiazol-4-yl)-2-(hydroxyimino)acetamido)-2-hydroxy-3,4-dihydro-2H-benzo[e][1,2]oxaborinine-8-carboxylic Acid] | > 128 µg/mL | > 128 µg/mL | 
11 | CC(C)(O/N=C(\C(=O)N[C@H]1Cc2cc(O)cc(C(=O)O)c2OB1O)c1csc(N)n1)C(=O)O [Example 80, (R,Z)-3-(2-(2-aminothiazol-4-yl)-2-(((2-carboxypropan-2-yl)oxy)imino)acetamido)-2,6-dihydroxy-3,4-dihydro-2H-benzo[e][1,2]oxaborinine-8-carboxylic Acid] | < 64 µg/mL | > 128 µg/mL | 
12 | CO/N=C(\C(=O)N[C@H]1Cc2cccc(C(=O)O)c2OB1O)c1ccc2c(c1)CNC2 [Example 5, (R,Z)-2-hydroxy-3-(2-(isoindolin-5-yl)-2-(methoxyimino)acetamido)-3,4-dihydro-2H-benzo[e][1,2]oxaborinine-8-carboxylic Acid] | > 128 µg/mL | > 128 µg/mL | 
13 | Nc1nc(C(CC(=O)O)C(=O)N[C@H]2Cc3cccc(C(=O)O)c3OB2O)cs1 (mixture of isomers) [Example 99, (3R)-3-(2-(2-aminothiazol-4-yl)-3-carboxypropanamido)-2-hydroxy-3,4-dihydro-2H-benzo[e][1,2]oxaborinine-8-carboxylic Acid] | 64 to 128 µg/mL | > 128 µg/mL | 
14 | Nc1nc(/C(=N/OCC(=O)O)C(=O)N[C@H]2Cc3cccc(C(=O)O)c3OB2O)cs1 [Example 18, (R,Z)-3-(2-(2-aminothiazol-4-yl)-2-((carboxymethoxy)imino)acetamido)-2-hydroxy-3,4-dihydro-2H-benzo[e][1,2]oxaborinine-8-carboxylic Acid] | < 64 µg/mL | > 128 µg/mL | 
15 | CO/N=C(\C(=O)N[C@H]1Cc2cccc(C(=O)O)c2OB1O)c1nsc(N)n1 [Example 2, (R,Z)-3-(2-(5-amino-1,2,4-thiadiazol-3-yl)-2-(methoxyimino)acetamido)-2-hydroxy-3,4-dihydro-2H-benzo[e][1,2]oxaborinine-8-carboxylic Acid] | < 64 µg/mL | > 128 µg/mL | 
16 | Nc1nc(/C(=N/O)C(=O)N[C@H]2Cc3cccc(C(=O)O)c3OB2O)ns1 [Example 19, (R,Z)-3-(2-(5-amino-1,2,4-thiadiazol-3-yl)-2-(hydroxyimino)acetamido)-2-hydroxy-3,4-dihydro-2H-benzo[e][1,2]oxaborinine-8-carboxylic Acid] | > 128 µg/mL | 64 to 128 µg/mL | 
17 | O=C(N[C@H]1Cc2cccc(C(=O)O)c2OB1O)/C(=N/O)c1csc(NCCc2ccncc2)n1 [Example 124, (R,E)-2-hydroxy-3-(2-(hydroxyimino)-2-(2-((2-(pyridin-4-yl)ethyl)amino)thiazol-4-yl)acetamido)-3,4-dihydro-2H-benzo[e][1,2]oxaborinine-8-carboxylic Acid] | > 128 µg/mL | > 128 µg/mL | 
18 | C[N+]1(Cc2cc3c(c(C(=O)[O-])c2)OB(O)[C@@H](NC(=O)/C(=N\O)c2csc(N)n2)C3)CCCC1 [Example 34, (R,Z)-3-(2-(2-aminothiazol-4-yl)-2-(hydroxyimino)acetamido)-2-hydroxy-6-((1-methylpyrrolidin-1-ium-1-yl)methyl)-3,4-dihydro-2H-benzo[e][1,2]oxaborinine-8-carboxylate] |  | < 64 µg/mL | 
19 | Nc1nc(/C(=N/O)C(=O)N[C@H]2Cc3cc(C(=O)O)cc(C(=O)O)c3OB2O)cs1 [Example 38, (R,Z)-3-(2-(2-aminothiazol-4-yl)-2-(hydroxyimino)acetamido)-2-hydroxy-3,4-dihydro-2H-benzo[e][1,2]oxaborinine-6,8-dicarboxylic Acid] |  | > 128 µg/mL | 
20 | C[N+]1(Cc2ccc3c(c2C(=O)[O-])OB(O)[C@@H](NC(=O)/C(=N\O)c2csc(N)n2)C3)CCCC1 [Example 26, (R,Z)-3-(2-(2-aminothiazol-4-yl)-2-(hydroxyimino)acetamido)-2-hydroxy-7-((1-methylpyrrolidin-1-ium-1-yl)methyl)-3,4-dihydro-2H-benzo[e][1,2]oxaborinine-8-carboxylate] |  | < 64 µg/mL | 
21 | CN(CC(=O)O)Cc1ccc2c(c1C(=O)O)OB(O)[C@@H](NC(=O)/C(=N\O)c1csc(N)n1)C2 [Example 31, (R,Z)-3-(2-(2-aminothiazol-4-yl)-2-(hydroxyimino)acetamido)-7-(((carboxymethyl)(methyl)amino)methyl)-2-hydroxy-3,4-dihydro-2H-benzo[e][1,2]oxaborinine-8-carboxylic Acid] |  | > 128 µg/mL | 
22 | C[N+]1(Cc2ccc3c(c2C(=O)[O-])OB(O)[C@@H](NC(=O)/C(=N\O)c2csc(N)n2)C3)CCC(CO)CC1 (stereo partly drawn) [Example 30, (R,Z)-3-(2-(2-aminothiazol-4-yl)-2-(hydroxyimino)acetamido)-2-hydroxy-7-((4-(hydroxymethyl)-1-methylpiperidin-1-ium-1-yl)methyl)-3,4-dihydro-2H-benzo[e][1,2]oxaborinine-8-carboxylate] |  | < 64 µg/mL | 
23 | COC(=O)CCc1cc2c(c(C(=O)O)c1)OB(O)[C@@H](NC(=O)/C(=N\O)c1csc(N)n1)C2 [Example 36, (R,Z)-3-(2-(2-aminothiazol-4-yl)-2-(hydroxyimino)acetamido)-2-hydroxy-6-(3-methoxy-3-oxopropyl)-3,4-dihydro-2H-benzo[e][1,2]oxaborinine-8-carboxylic Acid] |  | < 64 µg/mL | 
24 | Nc1nc(/C(=N/O)C(=O)N[C@H]2Cc3ccc(CN4CCC(CO)CC4)c(C(=O)O)c3OB2O)cs1 [Example 29, (R,Z)-3-(2-(2-aminothiazol-4-yl)-2-(hydroxyimino)acetamido)-2-hydroxy-7-((4-(hydroxymethyl)piperidin-1-yl)methyl)-3,4-dihydro-2H-benzo[e][1,2]oxaborinine-8-carboxylic Acid] |  | > 128 µg/mL | 
